Laboratory results as given in patent US20220386606A1, “SPECIFICALLY SUBSTITUTED 3-PHENYL-5-SPIROCYCLOPENTYL-3-PYRROLIN-2-ONES AND THEIR USE AS HERBICIDES” (Bayer Aktiengesellschaft, priority 2019, published 2022).

Legend:
ALOMY [1] = test: Post-emergence herbicidal action against ALOMY; type: in vivo, Alopecurus myosuroides; conditions: 80 g/ha, visual assessment after about 3 weeks
Procedure, shortened: (§1)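 Weeds and crops grown in sandy loam in the greenhouse, treated post-emergence at the one-leaf stage (2–3 weeks after sowing). WP or EC formulations sprayed as aqueous suspension/emulsion at 600–800 l/ha water with 0.2% wetting agent. Visual % activity scored after about 3 weeks versus untreated controls (100% = dead, 0% = like control).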

AVEFA [2] = test: Post-emergence herbicidal action against AVEFA; type: in vivo, Avena fatua; conditions: 80 g/ha, visual assessment after about 3 weeks
Procedure, shortened: as §1

DIGSA [3] = test: Post-emergence herbicidal action against DIGSA; type: in vivo, Digitaria sanguinalis; conditions: 80 g/ha, visual assessment about 3 weeks after treatment vs untreated controls
Procedure, shortened: as §1

ECHCG [4] = test: Post-emergence herbicidal action against ECHCG; type: in vivo, Echinochloa crus-galli; conditions: 80 g/ha, visual assessment about 3 weeks after treatment vs untreated controls
Procedure, shortened: as §1

LOLRI [5] = test: Post-emergence herbicidal action against LOLRI; type: in vivo, Lolium rigidum; conditions: 80 g/ha, visual assessment about 3 weeks after treatment vs untreated controls
Procedure, shortened: as §1

SETVI [6] = test: Post-emergence herbicidal action against SETVI; type: in vivo, Setaria viridis; conditions: 80 g/ha, visual assessment about 3 weeks after treatment vs untreated controls
Procedure, shortened: as §1

HORMU = test: Post-emergence herbicidal action against HORMU; type: in vivo, Hordeum murinum; conditions: 80 g/ha, visual assessment about 3 weeks after treatment vs untreated controls
Procedure: (§2) Seeds of monocotyledonous and dicotyledonous weed and crop plants are laid out in sandy loam soil in wood-fiber pots, covered with soil and cultivated in a greenhouse under good growth conditions. 2 to 3 weeks after sowing, the test plants are treated at the one-leaf stage. The compounds of the invention, formulated in the form of wettable powders (WP) or as emulsion concentrates (EC), are then sprayed onto the green parts of the plants as aqueous suspension or emulsion at a water application rate equating to 600 to 800 l/ha with addition of 0.2% wetting agent. After the test plants have been left to stand in the greenhouse under optimal growth conditions for about 3 weeks, the action of the preparations is assessed visually in comparison to untreated controls (herbicidal action in percent (%): 100% activity=the plants have died, 0% activity=like control plants).

ALOMY [7] = test: Pre-emergence herbicidal action against ALOMY; type: in vivo, Alopecurus myosuroides; conditions: 320 g/ha, scored visually after 3 weeks vs untreated controls
Procedure, shortened: (§3)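 Percent activity (0% = like control, 100% = dead) read visually after a 3-week greenhouse period. Application: aqueous WP or EC formulations sprayed onto soil covering sown seeds, water rate 600 to 800 L/ha with 0.2% wetting agent.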

AVEFA [8] = test: Pre-emergence herbicidal action against AVEFA; type: in vivo, Avena fatua; conditions: 320 g/ha, scored visually after 3 weeks vs untreated controls
Procedure, shortened: as §3

DIGSA [9] = test: Pre-emergence herbicidal action against DIGSA; type: in vivo, Digitaria sanguinalis; conditions: 320 g/ha, scored visually after 3 weeks vs untreated controls
Procedure, shortened: as §3

ECHCG [10] = test: Pre-emergence herbicidal action against ECHCG; type: in vivo, Echinochloa crus-galli; conditions: 320 g/ha, scored visually after 3 weeks vs untreated controls
Procedure, shortened: as §3

LOLRI [11] = test: Pre-emergence herbicidal action against LOLRI (Table 8, titled post-emergence at 320 g/ha); type: in vivo, Lolium rigidum; conditions: table stands in the pre-emergence section
Procedure, shortened: as §3

SETVI [12] = test: Pre-emergence herbicidal action against SETVI; type: in vivo, Setaria viridis; conditions: 320 g/ha, scored visually after 3 weeks vs untreated controls
Procedure, shortened: as §3

AMARE = test: Pre-emergence herbicidal action against AMARE; type: in vivo, Amaranthus retroflexus; conditions: 320 g/ha
Procedure, shortened: as §3

MATIN = test: Pre-emergence herbicidal action against MATIN; type: in vivo; conditions: 320 g/ha
Procedure, shortened: as §3

POLCO = test: Pre-emergence herbicidal action against POLCO; type: in vivo, Polygonum convolvulus; conditions: 320 g/ha
Excerpt: Seeds of monocotyledonous and dicotyledonous weed plants and crop plants are laid out in sandy loam soil in wood-fiber pots and covered with soil. The compounds of the invention, formulated in the form of wettable powders (WP) or as emulsion concentrates (EC), are then applied to the surface of the covering soil as aqueous suspension or emulsion at a water application rate equating to 600 to 800 L/ha with addition of 0.2% wetting agent.
After the treatment, the pots are placed in a greenhouse and kept under good growth conditions for the trial plants. The damage to the test plants is scored visually after a test period of 3 weeks by comparison with untreated controls (herbicidal activity in percent (%): 100% activity=the plants have died, 0% activity=like control plants).

VIOTR = test: Pre-emergence herbicidal action against VIOTR; type: in vivo, Viola tricolor; conditions: 320 g/ha
Procedure, shortened: as §3

VERPE = test: Pre-emergence herbicidal action against VERPE; type: in vivo, Veronica persica; conditions: 320 g/ha
Procedure, shortened: as §3

ABUTH = test: Post-emergence herbicidal action against ABUTH; type: in vivo, Abutylon threophrasti; conditions: 80 g/ha, visual assessment about 3 weeks after treatment vs untreated controls
Procedure: as §2

Structure (SMILES)	Post-emergence action against ALOMY in % (ALOMY [1]) [%]	Post-emergence action against AVEFA in % (AVEFA [2]) [%]	Post-emergence action against DIGSA in % (DIGSA [3]) [%]	Post-emergence action against ECHCG in % (ECHCG [4]) [%]	Post-emergence action against LOLRI in % (LOLRI [5]) [%]	Post-emergence action against SETVI in % (SETVI [6]) [%]	Post-emergence action against HORMU in % (HORMU) [%]	Pre-emergence action against ALOMY in % (ALOMY [7]) [%]	Pre-emergence action against AVEFA in % (AVEFA [8]) [%]	Pre-emergence action against DIGSA in % (DIGSA [9]) [%]	Pre-emergence action against ECHCG in % (ECHCG [10]) [%]	Pre-emergence herbicidal action against LOLRI in % (LOLRI [11]) [%]	Pre-emergence action against SETVI in % (SETVI [12]) [%]	Pre-emergence action against AMARE in % (AMARE) [%]	Pre-emergence action against MATIN in % (MATIN) [%]	Pre-emergence action against POLCO in % (POLCO) [%]	Pre-emergence action against VIOTR in % (VIOTR) [%]	Pre-emergence action against VERPE in % (VERPE) [%]	Post-emergence action against ABUTH in % (ABUTH) [%]
C#Cc1cc(Cl)c(C2=C(O)C3(CCC(COC)C3)NC2=O)c(OC)c1 (stereo not drawn) [Example I-01]	100	90	90	90	100	90	100												
CC#Cc1cc(Cl)c(C2=C(O)C3(CCC(COCC)C3)NC2=O)c(CC)c1 (stereo not drawn) [Example I-03]	100	100	100	100	100	100	100												
CC#Cc1cc(Cl)c(C2=C(O)C3(CCC(COC)C3)NC2=O)c(CC)c1 (stereo not drawn) [Example I-04]	100	100	100	100	100	100	100												
CC#Cc1cc(Cl)c(C2=C(O)C3(CCC(COCC)C3)NC2=O)c(OC)c1 (stereo not drawn) [Example I-07]	100	100	100	100	100	100	100												
C#Cc1cc(Cl)c(C2=C(O)C3(CCC(COCC)C3)NC2=O)c(OC)c1 (stereo not drawn) [Example I-08]	80	90	80		90	90	80												
CC#Cc1cc(C)c(C2=C(O)C3(CCC(COCC)C3)NC2=O)c(Cl)c1 (stereo not drawn) [Example I-09]	100	100	100	100	100	100	100												
C#Cc1cc(Cl)c(C2=C(O)C3(CCC(COC)C3)NC2=O)c(OC)c1 (stereo not drawn) [Example I-13]	100	90	100	100	90	100	90												
CC#Cc1cc(C)c(C2=C(O)C3(CCC(COCCOC)C3)NC2=O)c(Cl)c1 (stereo not drawn) [Example I-51]	100	100	100	100	90	100		100	100	100	100	100	100	100	100	80	100	100	
C#CCOCC1CCC2(C1)NC(=O)C(c1c(C)cc(C#CC)cc1Cl)=C2O (stereo not drawn) [Example I-79]	90	90	100	100	100	100		100	100	100	100	100	100	100	90	90	100	80	
CC#Cc1cc(C)c(C2=C(OC(=O)OCC)C3(CCC(COCC)C3)NC2=O)c(Cl)c1 (stereo not drawn) [Example P-11]	80	100	100		100	100	100												
CC#Cc1cc(C)c(C2=C(OC(=O)C(C)C)C3(CCC(COC)C3)NC2=O)c(Br)c1 (stereo not drawn) [Example P-33]	100	90	100		100	100		100	100	100	100	100	100	100		100	100	80	80
CC#Cc1cc(C)c(C2=C(OC(=O)C(C)C)C3(CCC(COCC)C3)NC2=O)c(OC)c1 (stereo not drawn) [Example P-60]	100	100	90	100	100	100		100	100	100	100	100	100	100	90	80	100	80	
CC#Cc1cc(C)c(C2=C(OC(=O)OCC)C3(CCC(COCCOC)C3)NC2=O)c(OC)c1 (stereo not drawn) [Example P-80]	100	90	90	100	90	100		100	100	100	100	100	100	90	90	90	100	100	
